Laboratory results taken from PubChem BioAssay AID248 (DTP/NCI, 2004).
Where “and” joins values, the source holds several entries; their conditions need not be identical. Identical values can stand only once. Inconclusive results and toxic doses are left out. Cut-off read from the data, not from the text of the source: active = T/C of 150% or more; inactive = T/C below 125%.

Tested on: L1210 leukemia ip in BDF1 mice, survival T/C
Assay: NCI In Vivo Anticancer Drug Screen. Data for tumor model L1210 Leukemia (intraperitoneal) in B6D2F1 (BDF1) mice
Settings: endpoint: mean survival time, higher = longer survival
Procedure, shortened: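 Tumor was transplanted into mice, which were then dosed with test compound or vehicle alone. Survival was recorded for each group, and the treated figure was expressed relative to the control figure.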

[1] = dose: 100.0 mg/kg/injection, schedule: Q04DX003 (ip), vehicle: saline with Tween-80
[2] = dose: 200.0 mg/kg/injection, schedule: Q04DX003 (ip), vehicle: saline with Tween-80
[3] = dose: 400.0 mg/kg/injection, schedule: Q04DX003 (ip), vehicle: saline with Tween-80
[4] = dose: 75.0 mg/kg/injection, schedule: Q01DX001 (ip), vehicle: saline
[5] = dose: 100.0 mg/kg/injection, schedule: Q01DX009 (ip), vehicle: Klucel (hydroxypropylcellulose) (HPC)
[6] = dose: 200.0 mg/kg/injection, schedule: Q01DX009 (ip), vehicle: Klucel (hydroxypropylcellulose) (HPC)
[7] = dose: 3.12 mg/kg/injection, schedule: Q01DX009 (ip), vehicle: Klucel (hydroxypropylcellulose) (HPC)
[8] = dose: 6.25 mg/kg/injection, schedule: Q01DX009 (ip), vehicle: Klucel (hydroxypropylcellulose) (HPC)
[9] = dose: 6.25 mg/kg/injection, schedule: Q04DX003 (ip), vehicle: saline
[10] = dose: 100.0 mg/kg/injection, schedule: Q04DX003 (ip), vehicle: Klucel (hydroxypropylcellulose) (HPC)
[11] = dose: 200.0 mg/kg/injection, schedule: Q04DX003 (ip), vehicle: Klucel (hydroxypropylcellulose) (HPC)
[12] = dose: 400.0 mg/kg/injection, schedule: Q04DX003 (ip), vehicle: Klucel (hydroxypropylcellulose) (HPC)
[13] = dose: 100.0 mg/kg/injection, schedule: Q01DX009 (ip), vehicle: saline with Tween-80
[14] = dose: 200.0 mg/kg/injection, schedule: Q01DX009 (ip), vehicle: saline with Tween-80

Measured: T/C

CCOC(=O)C1C(O)=C(c2ccccc2)P(=O)(Cc2ccccc2)C1(C)C (stereo unspecified)
inactive: [1] 94 % of control | [2] 94 % of control | [3] 91 % of control

CN1CCC(CSC(=O)C(O)(c2ccccc2)C2CCCCC2)C1 (stereo unspecified)
inactive: [4] 97 % of control

Oc1c(-c2ccccc2)n[nH]c1-c1ccccc1
inactive: dose: 50.0 mg/kg/injection, schedule: Q01DX009 (ip), vehicle: Klucel (hydroxypropylcellulose) (HPC) 98 % of control | [5] 98 % of control | [6] 94 % of control

O=C1C2C3CCC(O3)C2C(=O)N1Cc1ccccc1CN1C(=O)C2C3CCC(O3)C2C1=O (stereo unspecified)
inactive: [5] 91 % of control | [6] 91 % of control | dose: 400.0 mg/kg/injection, schedule: Q01DX009 (ip), vehicle: Klucel (hydroxypropylcellulose) (HPC) 88 % of control

Cc1nc(NCc2ccccc2)c2cc[nH]c2n1
inactive: dose: 1.56 mg/kg/injection, schedule: Q01DX009 (ip), vehicle: Klucel (hydroxypropylcellulose) (HPC) 104 % of control and 111 % of control | [7] 96 % of control and 105 % of control | dose: 3.12 mg/kg/injection, schedule: Q04DX003 (ip), vehicle: Klucel (hydroxypropylcellulose) (HPC) 106 % of control | dose: 5.0 mg/kg/injection, schedule: Q01DX001 (ip), vehicle: saline 104 % of control | [8] 103 % of control and 110 % of control | dose: 6.25 mg/kg/injection, schedule: Q04DX003 (ip), vehicle: Klucel (hydroxypropylcellulose) (HPC) 103 % of control | dose: 10.0 mg/kg/injection, schedule: Q01DX001 (ip), vehicle: saline 104 % of control | dose: 12.5 mg/kg/injection, schedule: Q01DX009 (ip), vehicle: Klucel (hydroxypropylcellulose) (HPC) 100 % of control and 105 % of control | dose: 12.5 mg/kg/injection, schedule: Q04DX003 (ip), vehicle: Klucel (hydroxypropylcellulose) (HPC) 111 % of control | dose: 20.0 mg/kg/injection, schedule: Q01DX001 (ip), vehicle: saline 116 % of control | dose: 25.0 mg/kg/injection, schedule: Q01DX009 (ip), vehicle: Klucel (hydroxypropylcellulose) (HPC) 93 % of control and 97 % of control | dose: 25.0 mg/kg/injection, schedule: Q04DX003 (ip), vehicle: Klucel (hydroxypropylcellulose) (HPC) 103 % of control | dose: 40.0 mg/kg/injection, schedule: Q01DX001 (ip), vehicle: saline 104 % of control | dose: 80.0 mg/kg/injection, schedule: Q01DX001 (ip), vehicle: saline 110 % of control

CCOC(=O)CSC1=NCCN1
inactive: dose: 100.0 mg/kg/injection, schedule: Q01DX001 (ip), vehicle: saline 105 % of control | dose: 200.0 mg/kg/injection, schedule: Q01DX001 (ip), vehicle: saline 113 % of control | dose: 400.0 mg/kg/injection, schedule: Q01DX001 (ip), vehicle: saline 105 % of control

C[CH2][Sn]([CH2]C)([O]S(=O)(=O)CC12CCC(CC1=O)C2(C)C)[O]S(=O)(=O)CC12CCC(CC1=O)C2(C)C
inactive: dose: 3.12 mg/kg/injection, schedule: Q01DX009 (ip), vehicle: saline 106 % of control | dose: 5.5 mg/kg/injection, schedule: Q01DX009 (ip), vehicle: saline 109 % of control | dose: 6.25 mg/kg/injection, schedule: Q01DX009 (ip), vehicle: saline 106 % of control and 107 % of control | [9] 112 % of control | dose: 8.2 mg/kg/injection, schedule: Q01DX009 (ip), vehicle: saline 118 % of control | dose: 11.0 mg/kg/injection, schedule: Q04DX003 (ip), vehicle: saline 113 % of control | dose: 12.5 mg/kg/injection, schedule: Q01DX009 (ip), vehicle: saline 106 % of control and 120 % of control | dose: 12.5 mg/kg/injection, schedule: Q04DX002 (ip), vehicle: saline 104 % of control | dose: 12.5 mg/kg/injection, schedule: Q04DX003 (ip), vehicle: saline 114 % of control | dose: 16.0 mg/kg/injection, schedule: Q04DX003 (ip), vehicle: saline 104 % of control | dose: 18.0 mg/kg/injection, schedule: Q01DX009 (ip), vehicle: saline 117 % of control | dose: 22.0 mg/kg/injection, schedule: Q04DX002 (ip), vehicle: saline 107 % of control | dose: 25.0 mg/kg/injection, schedule: Q01DX001 (ip), vehicle: saline 109 % of control | dose: 25.0 mg/kg/injection, schedule: Q01DX009 (ip), vehicle: saline 112 % of control and 115 % of control and 120 % of control | dose: 25.0 mg/kg/injection, schedule: Q04DX002 (ip), vehicle: saline 106 % of control | dose: 25.0 mg/kg/injection, schedule: Q04DX003 (ip), vehicle: saline 112 % of control and 117 % of control | dose: 35.0 mg/kg/injection, schedule: Q04DX002 (ip), vehicle: saline 116 % of control | dose: 35.0 mg/kg/injection, schedule: Q04DX003 (ip), vehicle: saline 113 % of control | dose: 45.0 mg/kg/injection, schedule: Q01DX001 (ip), vehicle: saline 120 % of control | dose: 50.0 mg/kg/injection, schedule: Q01DX001 (ip), vehicle: saline 114 % of control | dose: 50.0 mg/kg/injection, schedule: Q04DX003 (ip), vehicle: saline 102 % of control | dose: 55.0 mg/kg/injection, schedule: Q04DX003 (ip), vehicle: saline 112 % of control

N#CC(C#N)=Cc1ccc([N+](=O)[O-])o1
inactive: dose: 1.56 mg/kg/injection, schedule: Q04DX003 (ip), vehicle: saline 103 % of control | [7] 103 % of control | dose: 3.12 mg/kg/injection, schedule: Q04DX003 (ip), vehicle: saline 92 % of control | [8] 104 % of control | [9] 103 % of control

COc1ccc(N2CCN(/C=C/C(=O)c3ccc(C)cc3C)CC2)cc1
inactive: [1] 97 % of control | [2] 95 % of control | [3] 106 % of control

CCOc1ccc2cc(S(=O)(=O)O)ccc2c1N
inactive: dose: 100.0 mg/kg/injection, schedule: Q01DX009 (ip), vehicle: saline 93 % of control | [10] 97 % of control | dose: 200.0 mg/kg/injection, schedule: Q01DX009 (ip), vehicle: saline 95 % of control | [11] 98 % of control | dose: 400.0 mg/kg/injection, schedule: Q01DX009 (ip), vehicle: saline 87 % of control | [12] 101 % of control

CC/C=C(\CCC)C1(CC)C(=O)NC(=O)NC1=O
inactive: [4] 94 % of control | dose: 150.0 mg/kg/injection, schedule: Q01DX001 (ip), vehicle: saline 105 % of control

Cc1ccc(S(=O)(=O)Nc2ccc(C#N)c3ccccc23)cc1
inactive: [13] 92 % of control | [1] 90 % of control | [14] 89 % of control | [2] 95 % of control | dose: 400.0 mg/kg/injection, schedule: Q01DX009 (ip), vehicle: saline with Tween-80 89 % of control | [3] 87 % of control

Brc1cscc1Cc1ccccc1
inactive: dose: 50.0 mg/kg/injection, schedule: Q01DX009 (ip), vehicle: saline with Tween-80 95 % of control | [13] 95 % of control | [14] 95 % of control

CCCCCCCCCCCCCCCCS(=O)(=O)c1ccc(S(=O)(=O)F)cc1NC(C)=O
inactive: [10] 91 % of control | dose: 200.0 mg/kg/injection, schedule: Q01DX009 (ip), vehicle: saline sonified 93 % of control | [11] 94 % of control | [12] 91 % of control

Cc1ccc2nc(Nc3ccc(Cl)cc3)cc(C(O)C3CCCCN3)c2c1 (stereo unspecified)
inactive: [10] 96 % of control | [11] 92 % of control | [12] 97 % of control
